Experimental data from patent US12357669B1, “Modification of natural compounds to create products with enhanced health benefits” (priority 2024, dated 2025).

Test system: patient with continuously active ulcerative colitis (UC)
Experiment: observations in a patient with continuously active ulcerative colitis (UC)
Format: in vivo, human
Settings: components without prior formation of the chelate/complex
Excerpt: Many patients with ulcerative colitis have remitting/recurring disease activity which occurs spontaneously at random times. Other factors, such as changes in diet, stress, intercurrent use of medications either to control symptoms of UC or used to treat other conditions, such as antibiotics non steroidal pain medications and steroids, may make inflammation and symptoms worse or better depending on their particular properties.
Some patients with UC have unremitting continuously active disease which never goes into remission spontaneously. Such patients make excellent study subjects since the action of compounds designed to reduce disease activity and symptoms can be evaluated without the complicating factor of spontaneous changes in disease severity.
In the patient studied in this report disease activity was observed over several decades and was continuously active with no spontaneous remissions.

iron
amelioration of the symptoms of ulcerative colitis: not seen
